Values quoted from earlier work as cited in patent EP0268926A2, “Safened sorptive granular pesticidal resin compositions for controlling soil borne pests and process for the preparation thereof” (priority 1986, dated 1988).

Test system: rats
Settings: technical pesticide

SMILES: CCOP(=S)(OCC)SCSCC [phorate, O,O-diethyl-S-(ethylthiomethyl)phosphorodithioate]
- acute oral LD50 value in rats: 1.6-3.7 mg technical/kg
